# Measurements taken from ChEMBL document CHEMBL3885881, “DrugMatrix”.
# Organism: Rattus norvegicus
# Assay: DrugMatrix - Regimen: Daily Repeat
# Type: toxicity, organism-based, Sprague-Dawley
# Set-up: regimen Daily Repeat, gender Male, age 6-8 weeks
# Conditions: in vivo, sc, […], route mini-PUMP - SUBCUTANEOUS, dose level High, vehicle 100 % SALINE; for ABSOLUTE LYMPHOCYTE / ABSOLUTE MONOCYTE / BASOPHIL / EOSINOPHIL / ERYTHROCYTE COUNT / HEMATOCRIT / HEMOGLOBIN / LEUKOCYTE COUNT / MEAN CORPUSCULAR HEMOGLOBIN / MEAN CORPUSCULAR HEMOGLOBIN CONCENTRATION / MEAN CORPUSCULAR VOLUME / MONOCYTE / NEUTROPHIL / PLATELET COUNT / ABSOLUTE BASOPHIL / ABSOLUTE EOSINOPHIL / ABSOLUTE SEGMENTED NEUTROPHIL / NUCLEATED RED BLOOD CELLS: tissue Blood
# [1] = 0.5 mg/kg, tissue Plasma, time 14 day
# [2] = 72 h, dose 0.72 mg/Kg, time 3 day
# [3] = 72 h, tissue Plasma, dose 0.72 mg/Kg, time 3 day
# [4] = 120 h, dose 0.72 mg/Kg, time 5 day
# [5] = 120 h, tissue Plasma, dose 0.72 mg/Kg, time 5 day
# [6] = tissue Plasma, dose 0.72 mg/Kg, time 14 day
smiles,measurement,setting,value
CC[C@H](C)[C@H](NC(=O)[C@H](Cc1ccc(O)cc1)NC(=O)[C@@H](NC(=O)[C@H](CCCNC(=N)N)NC(=O)[C@@H](N)CC(=O)O)C(C)C)C(=O)N[C@@H](Cc1cnc[nH]1)C(=O)N1CCC[C@H]1C(=O)N[C@@H](Cc1ccccc1)C(=O)O [ANGIOTENSIN II],ABSOLUTE LYMPHOCYTE,"0.5 mg/kg, time 14 day",9890 cells/µL
same,ABSOLUTE MONOCYTE,"0.5 mg/kg, time 14 day",390 cells/µL
same,BASOPHIL,"0.5 mg/kg, time 14 day",0.3%
same,EOSINOPHIL,"0.5 mg/kg, time 14 day",0.46%
same,ERYTHROCYTE COUNT,"0.5 mg/kg, time 14 day",7.14 x10E6/uL
same,HEMATOCRIT,"0.5 mg/kg, time 14 day",45.2%
same,HEMOGLOBIN,"0.5 mg/kg, time 14 day",14.82 G/DL
same,LEUKOCYTE COUNT,"0.5 mg/kg, time 14 day",13.29 x10E3/uL
same,MEAN CORPUSCULAR HEMOGLOBIN,"0.5 mg/kg, time 14 day",20.82 pg
same,MEAN CORPUSCULAR HEMOGLOBIN CONCENTRATION,"0.5 mg/kg, time 14 day",32.78 G/DL
same,MEAN CORPUSCULAR VOLUME,"0.5 mg/kg, time 14 day",63.38 fL
same,MONOCYTE,"0.5 mg/kg, time 14 day",3.02%
same,NEUTROPHIL,"0.5 mg/kg, time 14 day",20.78%
same,PLATELET COUNT,"0.5 mg/kg, time 14 day",1204.2 x10E3/uL
same,ALBUMIN,[1],3.98 G/DL
same,ALKALINE PHOSPHATASE,[1],370.2 u/L
same,ASPARTATE AMINOTRANSFERASE,[1],94.8 u/L
same,BLOOD UREA NITROGEN,[1],19 mg/dL
same,CARBON DIOXIDE,[1],41 mmol/L
same,CHOLESTEROL,[1],66.8 mg/dL
same,CREATINE PHOSPHOKINASE,[1],324.4 u/L
same,CREATININE,[1],0.74 mg/dL
same,GLUCOSE,[1],138.2 mg/dL
same,LACTATE DEHYDROGENASE,[1],202.4 u/L
same,PHOSPHORUS,[1],9.74 mg/dL
same,POTASSIUM,[1],5.88 MEQ/L
same,SODIUM,[1],149.8 MEQ/L
same,TOTAL BILIRUBIN,[1],0.44 mg/dL
same,URIC ACID,[1],0.7 mg/dL
same,ABSOLUTE BASOPHIL,[2],0 CELLS/uL
same,ABSOLUTE EOSINOPHIL,[2],0 CELLS/uL
same,ABSOLUTE LYMPHOCYTE,[2],11891.33 CELLS/uL
same,ABSOLUTE MONOCYTE,[2],399.33 CELLS/uL
same,ABSOLUTE SEGMENTED NEUTROPHIL,[2],1676 CELLS/uL
same,BASOPHIL,[2],0%
same,EOSINOPHIL,[2],0%
same,ERYTHROCYTE COUNT,[2],6.49 x10E6/uL
same,HEMATOCRIT,[2],38.87%
same,HEMOGLOBIN,[2],14.23 G/DL
same,LEUKOCYTE COUNT,[2],13.97 x10E3/uL
same,MEAN CORPUSCULAR HEMOGLOBIN,[2],21.93 pg
same,MEAN CORPUSCULAR HEMOGLOBIN CONCENTRATION,[2],36.63 G/DL
same,MEAN CORPUSCULAR VOLUME,[2],59.9 fL
same,MONOCYTE,[2],2.67%
same,NEUTROPHIL,[2],12%
same,NUCLEATED RED BLOOD CELLS,[2],0 /100WBC
same,PLATELET COUNT,[2],1285 x10E3/uL
same,ALBUMIN,[3],4.4 G/DL
same,ALKALINE PHOSPHATASE,[3],340 u/L
same,ASPARTATE AMINOTRANSFERASE,[3],83.67 u/L
same,BLOOD UREA NITROGEN,[3],25.67 mg/dL
same,CARBON DIOXIDE,[3],28.67 mmol/L
same,CHOLESTEROL,[3],90.33 mg/dL
same,CREATININE,[3],0.22 mg/dL
same,GLUCOSE,[3],151.33 mg/dL
same,LACTATE DEHYDROGENASE,[3],469.67 u/L
same,PHOSPHORUS,[3],10.63 mg/dL
same,POTASSIUM,[3],5.96 MEQ/L
same,SODIUM,[3],143.73 MEQ/L
same,TOTAL BILIRUBIN,[3],0.2 mg/dL
same,URIC ACID,[3],2 mg/dL
same,ABSOLUTE BASOPHIL,[4],0 CELLS/uL
same,ABSOLUTE EOSINOPHIL,[4],202.67 CELLS/uL
same,ABSOLUTE LYMPHOCYTE,[4],15280.67 CELLS/uL
same,ABSOLUTE MONOCYTE,[4],168.67 CELLS/uL
same,ABSOLUTE SEGMENTED NEUTROPHIL,[4],1814.67 CELLS/uL
same,BASOPHIL,[4],0%
same,EOSINOPHIL,[4],1.33%
same,ERYTHROCYTE COUNT,[4],6.42 x10E6/uL
same,HEMATOCRIT,[4],38.03%
same,HEMOGLOBIN,[4],14.03 G/DL
same,LEUKOCYTE COUNT,[4],17.47 x10E3/uL
same,MEAN CORPUSCULAR HEMOGLOBIN,[4],21.87 pg
same,MEAN CORPUSCULAR HEMOGLOBIN CONCENTRATION,[4],36.9 G/DL
same,MEAN CORPUSCULAR VOLUME,[4],59.23 fL
same,MONOCYTE,[4],1%
same,NEUTROPHIL,[4],10.33%
same,NUCLEATED RED BLOOD CELLS,[4],0 /100WBC
same,PLATELET COUNT,[4],1412 x10E3/uL
same,ALBUMIN,[5],4.23 G/DL
same,ALKALINE PHOSPHATASE,[5],297.67 u/L
same,ASPARTATE AMINOTRANSFERASE,[5],85 u/L
same,BLOOD UREA NITROGEN,[5],26 mg/dL
same,CARBON DIOXIDE,[5],27.33 mmol/L
same,CHOLESTEROL,[5],71 mg/dL
same,CREATININE,[5],0.21 mg/dL
same,GLUCOSE,[5],137 mg/dL
same,LACTATE DEHYDROGENASE,[5],451.33 u/L
same,PHOSPHORUS,[5],11.73 mg/dL
same,POTASSIUM,[5],6.62 MEQ/L
same,SODIUM,[5],144.83 MEQ/L
same,TOTAL BILIRUBIN,[5],0.2 mg/dL
same,URIC ACID,[5],2.03 mg/dL
same,ABSOLUTE BASOPHIL,"dose 0.72 mg/Kg, time 14 day",0 CELLS/uL
same,ABSOLUTE EOSINOPHIL,"dose 0.72 mg/Kg, time 14 day",135.4 CELLS/uL
same,ABSOLUTE LYMPHOCYTE,"dose 0.72 mg/Kg, time 14 day",12908 CELLS/uL
same,ABSOLUTE MONOCYTE,"dose 0.72 mg/Kg, time 14 day",411.8 CELLS/uL
same,ABSOLUTE SEGMENTED NEUTROPHIL,"dose 0.72 mg/Kg, time 14 day",3124.8 CELLS/uL
same,BASOPHIL,"dose 0.72 mg/Kg, time 14 day",0%
same,EOSINOPHIL,"dose 0.72 mg/Kg, time 14 day",0.8%
same,ERYTHROCYTE COUNT,"dose 0.72 mg/Kg, time 14 day",6.73 x10E6/uL
same,HEMATOCRIT,"dose 0.72 mg/Kg, time 14 day",38.96%
same,HEMOGLOBIN,"dose 0.72 mg/Kg, time 14 day",14.36 G/DL
same,LEUKOCYTE COUNT,"dose 0.72 mg/Kg, time 14 day",16.58 x10E3/uL
same,MEAN CORPUSCULAR HEMOGLOBIN,"dose 0.72 mg/Kg, time 14 day",21.34 pg
same,MEAN CORPUSCULAR HEMOGLOBIN CONCENTRATION,"dose 0.72 mg/Kg, time 14 day",36.86 G/DL
same,MEAN CORPUSCULAR VOLUME,"dose 0.72 mg/Kg, time 14 day",57.88 fL
same,MONOCYTE,"dose 0.72 mg/Kg, time 14 day",2.6%
same,NEUTROPHIL,"dose 0.72 mg/Kg, time 14 day",17.8%
same,NUCLEATED RED BLOOD CELLS,"dose 0.72 mg/Kg, time 14 day",0 /100WBC
same,PLATELET COUNT,"dose 0.72 mg/Kg, time 14 day",976.2 x10E3/uL
same,ALBUMIN,[6],4.22 G/DL
same,ALKALINE PHOSPHATASE,[6],388 u/L
same,ASPARTATE AMINOTRANSFERASE,[6],100.6 u/L
same,BLOOD UREA NITROGEN,[6],31 mg/dL
same,CARBON DIOXIDE,[6],34.2 mmol/L
same,CHOLESTEROL,[6],70.6 mg/dL
same,CREATININE,[6],0.27 mg/dL
same,GLUCOSE,[6],174 mg/dL
same,LACTATE DEHYDROGENASE,[6],122.4 u/L
same,PHOSPHORUS,[6],11.92 mg/dL
same,POTASSIUM,[6],5.67 MEQ/L
same,SODIUM,[6],147.54 MEQ/L
same,TOTAL BILIRUBIN,[6],0.2 mg/dL
same,URIC ACID,[6],2.4 mg/dL
